Experimental data taken from patent US9890152B2 (Genentech, Inc., priority 2012, dated 2018).
pEC50, pKi: −log10 of the molar value.

Key:
[1] = molecular target: T1, phosphor-EGFR in H1975(L585R/T790M) mutant EGFR expressing cells (Homo sapiens, UniProt P00533, L858R/T790M); assay: H1975 pEGFR MSD cellular assay; type: cell-based; conditions: NCI-H1975 cells, serum starved, 1 hour compound incubation, pEGFR Tyr1068 MSD
T1 construct: host or cells: NCI-H1975
Method: H1975 pEGFR MSD Cellular Assays Background:
These assays are intended for determining cellular. […] (Meso Scale Discovery Catalog# N31CB-1).
All cell culture reagents were purchased from Invitrogen/Gibco. Cells are cultured at 37° C. at 5% CO2 and split as recommended by ATCC.
Cell Plating and Serum Starvation:
After six hours, culture medium is aspirated and replaced with serum-free culture medium. Cells are then incubated with the serum-free medium overnight at 37° C. and 5% CO2.
The following day, test compounds are serially diluted in dimethyl sulfoxide (DMSO) and added to cells in serum free medium (final DMSO concentration 0.5%). Assay plates are then incubated for 1 hour at 37° C. and 5% CO2. Following 1 hour of compound incubation cells are then lysed and processed as per the MSD pEGFR assay kit protocol. Cell lysates are added to assay plates pre-coated with antibodies against phosphorylated EGFR. Phosphorylated EGFR in samples are allowed to bind to the capture antibodies overnight at 4° C. The detection antibody (anti-total EGFR, labeled with an electrochemiluminescent SULFO-TAG) is added to the bound lysate and incubated for 1 hour at room temperature. The MSD Read Buffer is added such that when a voltage is applied to the plate electrodes, the labels bound to the electrode surface emit light. The MSD Sector Instrument measures the intensity of the light, and quantitatively measures the amount of phosphorylated-EGFR in the sample. Percent inhibition of EGFR phosphorylation by varying concentrations of test compounds is calculated relative to untreated controls. EC50 values are calculated using the 4 parameter logistic nonlinear regression dose-response model.

EGFR del746-750 T790M = molecular target: T2, EGFR del746-750 T790M (Homo sapiens, UniProt P00533, DEL746-750/T790M); assay: EGFR del746-750 T790M biochemical assay (Caliper mobility shift); conditions: 5 μM ATP, 30 min, room temperature; apparent Ki (Morrison) converted by Cheng-Prusoff, Km of ATP 2.1 μM; read-out: EGFR(T790M/d746-750) Ki
T2 construct: purchased Carna Biosciences 08-528
T2 sequence (P00533 with tags, fused parts or gaps DEL746-750/T790M limits assumed): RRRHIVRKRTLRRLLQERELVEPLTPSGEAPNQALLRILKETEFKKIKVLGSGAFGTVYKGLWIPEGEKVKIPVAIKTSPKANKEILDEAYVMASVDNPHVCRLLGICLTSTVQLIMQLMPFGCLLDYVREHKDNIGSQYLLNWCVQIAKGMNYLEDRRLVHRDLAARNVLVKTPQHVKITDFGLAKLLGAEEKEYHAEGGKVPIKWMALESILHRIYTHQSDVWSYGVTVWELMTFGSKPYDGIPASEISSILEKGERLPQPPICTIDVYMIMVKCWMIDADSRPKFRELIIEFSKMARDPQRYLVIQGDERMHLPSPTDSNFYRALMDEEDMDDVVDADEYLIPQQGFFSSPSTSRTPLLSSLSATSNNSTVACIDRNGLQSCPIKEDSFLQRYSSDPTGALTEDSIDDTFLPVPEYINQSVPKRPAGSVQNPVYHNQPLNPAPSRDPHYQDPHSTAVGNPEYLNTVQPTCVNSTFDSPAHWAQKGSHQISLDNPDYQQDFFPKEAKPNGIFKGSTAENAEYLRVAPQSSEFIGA

T1 sequence (P00533 25-1210 T790M/L858R): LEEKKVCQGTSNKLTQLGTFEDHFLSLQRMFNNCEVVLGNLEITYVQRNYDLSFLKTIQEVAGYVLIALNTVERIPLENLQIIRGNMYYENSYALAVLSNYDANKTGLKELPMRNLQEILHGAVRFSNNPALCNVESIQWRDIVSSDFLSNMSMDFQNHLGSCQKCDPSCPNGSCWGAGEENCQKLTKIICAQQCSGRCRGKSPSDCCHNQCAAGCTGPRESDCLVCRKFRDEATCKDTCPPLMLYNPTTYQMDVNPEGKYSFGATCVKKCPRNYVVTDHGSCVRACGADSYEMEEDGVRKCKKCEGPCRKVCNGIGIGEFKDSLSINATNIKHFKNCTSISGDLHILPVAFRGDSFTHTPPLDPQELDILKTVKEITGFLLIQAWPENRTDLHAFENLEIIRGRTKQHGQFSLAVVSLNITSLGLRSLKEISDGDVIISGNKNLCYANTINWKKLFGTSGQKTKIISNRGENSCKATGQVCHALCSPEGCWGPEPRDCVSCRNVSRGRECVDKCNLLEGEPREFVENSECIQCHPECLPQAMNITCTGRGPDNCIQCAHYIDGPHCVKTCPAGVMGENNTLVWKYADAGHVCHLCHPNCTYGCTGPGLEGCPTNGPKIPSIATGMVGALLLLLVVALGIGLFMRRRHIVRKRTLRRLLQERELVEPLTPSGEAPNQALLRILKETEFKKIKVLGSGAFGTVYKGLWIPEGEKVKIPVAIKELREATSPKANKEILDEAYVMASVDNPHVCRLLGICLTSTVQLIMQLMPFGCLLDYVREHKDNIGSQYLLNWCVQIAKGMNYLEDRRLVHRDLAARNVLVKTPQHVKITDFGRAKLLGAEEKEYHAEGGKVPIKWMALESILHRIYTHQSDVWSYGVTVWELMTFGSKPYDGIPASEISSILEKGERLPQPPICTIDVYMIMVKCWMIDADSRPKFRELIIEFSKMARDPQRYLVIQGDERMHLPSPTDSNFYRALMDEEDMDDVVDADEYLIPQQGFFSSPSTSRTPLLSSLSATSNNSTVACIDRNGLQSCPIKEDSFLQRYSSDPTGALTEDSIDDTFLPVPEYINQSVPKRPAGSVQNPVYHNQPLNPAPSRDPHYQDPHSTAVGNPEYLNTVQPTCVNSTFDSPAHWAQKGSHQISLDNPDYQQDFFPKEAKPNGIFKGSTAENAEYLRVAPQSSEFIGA

Work on `COC1CCN(c2nccc(Nc3cc4c(cn3)nc(C)n4C(C)C)n2)CC1` [Example 5, (1-Isopropyl-2-methyl-1H-imidazo[4,5-c]pyridin-6-yl)-[2-(4-methoxypiperidin-1-yl)pyrimidin-4-yl]amine] yielded a pEC50 [1] of 6.06 and a pKi (EGFR del746-750 T790M) of 7.32.

`C[C@H](n1c([C@@H](C)O)nc2cnc(Nc3ccnc(N4CCC(O)C(F)C4)n3)cc21)C(F)(F)F` (mixture of isomers) [Example 296, cis-3-Fluoro-1-{4-[2-((R)-1-hydroxyethyl)-1-((S)-2,2,2-trifluoro-1-methylethyl)-1H-imidazo[4,5-c]pyridin-6-ylamino]pyrimidin-2-yl}piperidin-4-ol] was tested, and the pEC50 [1] was 6.72 and the pKi (EGFR del746-750 T790M) was 8.30.

`CCC(C)n1cc(C(=O)NC2CCOC2)c2cnc(Nc3ccnc(N4CCC(O)C(C)(C)C4)n3)cc21` (mixture of isomers) [Example 373, 1-(sec-butyl)-6-((2-(4-hydroxy-3,3-dimethylpiperidin-1-yl)pyrimidin-4-yl)amino)-N-(tetrahydrofuran-3-yl)-1H-pyrrolo[3,2-c]pyridine-3-carboxamide] showed a pEC50 [1] of 7.17 and a pKi (EGFR del746-750 T790M) of 8.35.

For `CC1(C)CCOc2nc3cnc(Nc4ccnc(-c5cnn(S(=O)(=O)C6CC6)c5)n4)cc3n21` [Example 534, [2-(1-Cyclopropanesulfonyl-1H-pyrazol-4-yl)-pyrimidin-4-yl]-(4,4-dimethyl-3,4-dihydro-2H-1-oxa-4a,7,9-triazafluoren-6-yl)amine], the pEC50 [1] was 5.86 and the pKi (EGFR del746-750 T790M) was 8.25.

With `COC1CCN(c2nccc(Nc3cc4c(cn3)nc([C@@H](C)O)n4[C@@H](C)C(F)(F)F)n2)CC1F` (stereo partly drawn) [Example 543, (R)-1-[6-[2-(3-Fluoro-4-methoxypiperidin-1-yl)-pyrimidin-4-ylamino]-1-((S)-2,2,2-trifluoro-1-methyl-ethyl)-1H-imidazo[4,5-c]pyridin-2-yl]ethanol] the pEC50 [1] was 7.61 and the pKi (EGFR del746-750 T790M) was 8.24.

For `Cc1c(C(=O)NC2CCOCC2)c2cnc(Nc3ccnc(-c4cnn(S(=O)(=O)C5CC5)c4)n3)cc2n1C(C)C` [Example 335, 6-((2-(1-(Cyclopropylsulfonyl)-1H-pyrazol-4-yl)pyrimidin-4-yl)amino)-1-isopropyl-2-methyl-N-(tetrahydro-2H-pyran-4-yl)-1H-pyrrolo[3,2-c]pyridine-3-carboxamide], the pEC50 [1] was 6.60 and the pKi (EGFR del746-750 T790M) was 8.64.

With `CC(C)n1c(CO)nc2cnc(Nc3ccnc(N4C[C@H]5CC[C@@H](C4)[C@H]5O)n3)cc21` [Example 433, (1R,5S,8r)-3-(4-((2-(hydroxymethyl)-1-isopropyl-1H-imidazo[4,5-c]pyridin-6-yl)amino)pyrimidin-2-yl)-3-azabicyclo[3.2.1]octan-8-ol] the pEC50 [1] was 5.66 and the pKi (EGFR del746-750 T790M) was 7.76.

`CC(=O)Nc1cn(C(C)C)c2cc(Nc3ccnc(-c4cnn(S(=O)(=O)C5CC5)c4)n3)ncc12` [Example 327, N-(6-((2-(1-(Cyclopropylsulfonyl)-1H-pyrazol-4-yl)pyrimidin-4-yl)amino)-1-isopropyl-1H-pyrrolo[3,2-c]pyridin-3-yl)acetamide] was tested, and the pEC50 [1] was 6.98 and the pKi (EGFR del746-750 T790M) was 9.28.

Work on `C[C@H](n1c([C@@H](C)O)nc2cnc(Nc3ccnc(-c4cnn(S(=O)(=O)C5CC5)c4)n3)cc21)C(F)(F)F` [Example 572, (R)-1-[6-[2-(1-Cyclopropanesulfonyl-1H-pyrazol-4-yl)-pyrimidin-4-ylamino]-1-((S)-2,2,2-trifluoro-1-methylethyl)-1H-imidazo[4,5-c]pyridin-2-yl]-ethanol] yielded a pEC50 [1] of 6.78.

Compound `CC(C)n1cc(C(=O)NC2COC2)c2cnc(Nc3ccnc(-c4cnn(S(=O)(=O)N(C)C)c4)n3)cc21` [Example 378, 6-((2-(1-(N,N-dimethylsulfamoyl)-1H-pyrazol-4-yl)pyrimidin-4-yl)amino)-1-isopropyl-N-(oxetan-3-yl)-1H-pyrrolo[3,2-c]pyridine-3-carboxamide] has a pEC50 [1] of 6.75.

`CCC(C)n1cc(C(=O)NC2CCOCC2)c2cnc(Nc3ccnc(-c4cnn(S(=O)(=O)C5CC5)c4)n3)cc21` (single isomer, unassigned; (-)) [Example 322, (−)-1-(sec-butyl)-6-((2-(1-(cyclopropylsulfonyl)-1H-pyrazol-4-yl)pyrimidin-4-yl)amino)-N-(tetrahydro-2H-pyran-4-yl)-1H-pyrrolo[3,2-c]pyridine-3-carboxamide] was tested, and the pEC50 [1] was 7.22 and the pKi (EGFR del746-750 T790M) was 8.87.

With `CCC(C)n1cc(C(=O)NC2CCOCC2)c2cnc(Nc3ccnc(N4CC[C@@H](OC)[C@@H](F)C4)n3)cc21` (single isomer, unassigned) [Example 376] the pEC50 [1] was 7.84 and the pKi (EGFR del746-750 T790M) was 8.54.

`COc1ccc(-c2nccc(Nc3cc4c(cn3)ncn4C(C)C)n2)cn1` [Example 54, 1-Isopropyl-N-(2-(6-methoxypyridin-3-yl)pyrimidin-4-yl)-1H-imidazo[4,5-c]pyridin-6-amine] showed a pEC50 [1] of 5.45.

In the case of `COC1(CN)CCN(c2nccc(Nc3cc4c(cn3)nc(C)n4C(C)C)n2)CC1` [Example 271, [2-(4-Aminomethyl-4-methoxypiperidin-1-yl)pyrimidin-4-yl](1-isopropyl-2-methyl-1H-imidazo[4,5-c]pyridin-6-yl)amine], the pEC50 [1] was 5.24.

Compound `O=S(=O)(C1CC1)n1cc(-c2nccc(Nc3cc4c(cn3)nc(CO)n4-c3ccccc3)n2)cn1` [Example 475, (6-(2-(1-(cyclopropylsulfonyl)-1H-pyrazol-4-yl)pyrimidin-4-ylamino)-l-phenyl-1H-imidazo[4,5-c]pyridin-2-yl)methanol] has a pEC50 [1] of 5.74.

Work on `CC(C)n1c(C2CCCO2)nc2cnc(Nc3ccnc(-c4cnn(S(=O)(=O)C5CC5)c4)n3)cc21` (racemic) [Example 565, (±)-[2-(1-Cyclopropanesulfonyl-1H-pyrazol-4-yl)-pyrimidin-4-yl]-[1-isopropyl-2-(tetrahydro-furan-2-yl)-1H-imidazo[4,5-c]pyridin-6-yl]amine] yielded a pEC50 [1] of 5.94.

Work on `CC(C)n1cc(C2CNC(=O)C2)c2cnc(Nc3ccnc(-c4cnn(S(=O)(=O)C5CC5)c4)n3)cc21` (stereo not shown) [Example 256, 4-(6-(2-(1-(Cyclopropylsulfonyl)-1H-pyrazol-4-yl)pyrimidin-4-ylamino)-1-isopropyl-1H-pyrrolo[3,2-c]pyridin-3-yl)pyrrolidin-2-one] yielded a pEC50 [1] of 5.98.

In the case of `COC1(CO)CCN(c2nccc(Nc3cc4c(cn3)c(-c3cnn(C(C)(C)C(N)=O)c3)cn4C(C)C)n2)CC1` [Example 445, 2-(4-(6-(2-(4-(hydroxymethyl)-4-methoxypiperidin-1-yl)pyrimidin-4-ylamino)-1-isopropyl-1H-pyrrolo[3,2-c]pyridin-3-yl)-1H-pyrazol-1-yl)-2-methylpropanamide], the pEC50 [1] was 6.08.

Compound `Cc1nc2cnc(Nc3ccnc(-c4cnn(CC5CC5)c4)n3)cc2n1C(C)C` [Example 395, N-(2-(1-(cyclopropylmethyl)-1H-pyrazol-4-yl)pyrimidin-4-yl)-1-isopropyl-2-methyl-1H-imidazo[4,5-c]pyridin-6-amine] has a pEC50 [1] of 5.87.

`CC1(C)COCc2nc3cnc(Nc4ccnc(-c5cnn(S(=O)(=O)C6CC6)c5)n4)cc3n21` [Example 538, [2-(1-Cyclopropanesulfonyl-1H-pyrazol-4-yl)-pyrimidin-4-yl]-(4,4-dimethyl-3,4-dihydro-1H-2-oxa-4a,7,9-triazafluoren-6-yl)amine] showed a pEC50 [1] of 6.08.

In the case of `CC(C)n1c(OCCO)nc2cnc(Nc3ccnc(-c4cnn(S(=O)(=O)C5CC5)c4)n3)cc21` [Example 282, 2-{6-[2-(1-Cyclopropanesulfonyl-1H-pyrazol-4-yl)pyrimidin-4-ylamino]-1-isopropyl-1H-imidazo[4,5-c]pyridin-2-yloxy}ethanol], the pEC50 [1] was 6.38.
